Results as given in patent US20230190736A1, “SMALL MOLECULE THERAPEUTICS FOR THE TREATMENT OF VIRAL INFECTIONS” (priority 2020, published 2023).
Read-outs that look alike come from different tables or passages of the source.

Legend:
Assay type in all cases: cell-based
SARS-CoV-2 [1] = conditions: 10 um, 1 hour pretreatment, MOI 1, 48 hpi
SARS-CoV-2 [2] = conditions: Compound A 50 nM, Compound B 50 nM; higher is better
SARS-CoV-2 [3] = test: microbe, parasite or virus in culture; conditions: Severe acute respiratory syndrome coronavirus 2; secondary screen, doses 2.5, 25, 250 and 500 nM, immunofluorescent assay; read-out: IC50 anti SARS-CoV-2 activity
SARS-CoV-2 [4] = test: mTORC1 inhibition of SARS-CoV-2 replication in Vero cells (fluorescence microscopy); conditions: 25 nM, 72 hours
[5] = tested on: human lung stem cell derived Air-liquid interface (ALI) cells; test: Cell Titer glo viability assay in air-liquid interface (ALI) cultures; conditions: up to 50 μM, 48 hours post treatment
Procedure: Series 1 and 2 are the values from independent wells.
Berzosertib was tested in a primary human lung tissue culture system consisting of mucociliary air-liquid interface (ALI) cultures derived from primary human proximal airway basal stem cells (ABSCs). 24-well 6.5 mm trans-wells with […] polyester membrane inserts were used for culturing ALI cells. 500 μl ALI media (PneumaCult-ALI Medium, […] Technologies) was used in the basal chamber for ALI cultures and cells were cultured at 37° C. with 5% CO2. […] Control cells were treated with the solvent DMSO. 48 hours post drug treatment, the cells were subjected to viability assay using Cell Titer glo kit.

SARS-CoV-2 [6] = test: microbe, parasite or virus in culture

CCN(CCO)CCCC(C)Nc1ccnc2cc(Cl)ccc12 (stereo not drawn) [hydroxychloroquine]
inhibition of SARS-CoV-2 infection (dsRNA immunostaining) (SARS-CoV-2 [1]): efficiently inhibited SARS-CoV-2 infection
inhibition of SARS-CoV-2 infection (dsRNA immunostaining) (SARS-CoV-2 [1]; listed as HQ): effectively blocked SARS-CoV-2 infection

COc1ccc(CC(C)NCC(O)c2ccc(O)c(NC=O)c2)cc1 (stereo not drawn) [Empty-Formoterol, Formoterol]
Cell Number: Cell Nuclei Counts (SARS-CoV-2 [2]): 8390

OCc1cc(C(O)CNCCCCCCOCCCCc2ccccc2)ccc1O (stereo not drawn) [Empty-Salmeterol, Salmeterol]
Cell Number: Cell Nuclei Counts (SARS-CoV-2 [2]): 8193

CNC(=O)c1cccc(-c2ccc3c(N4CCOC[C@@H]4C)nc(N4CCOC[C@@H]4C)nc3n2)c1 [Vistusertib]
IC50 (SARS-CoV-2 [3]): 0.025 µM
presence of viral dsRNA (SARS-CoV-2 [4]): almost completely abolished

CNCc1ccc(-c2cc(-c3nc(-c4ccc(S(=O)(=O)C(C)C)cc4)cnc3N)on2)cc1 [Berzosertib]
IC50 (SARS-CoV-2 [3]): 0.025 µM
effect on cell viability [5]: did not have any deleterious effect on cell viability
effect on cell viability ([5]; listed as berzosertib): non-toxic and safe
inhibition of virus positive cells (SARS-CoV-2 [6]): over 70%
IC50 (SARS-CoV-2 [6]; Severe acute respiratory syndrome coronavirus 2, read-out: IC50 inhibiting SARS-CoV-2 determined by RTQPCR): 0.04 µM

Cc1cn(-c2cc(NC(=O)c3ccc(C)c(Nc4nccc(-c5cccnc5)n4)c3)cc(C(F)(F)F)c2)cn1 [Nilotinib]
IC50 (SARS-CoV-2 [3]): 0.25 to 0.5 µM
